A word on the Kd: it is the free concentration of one partner at which half of the binding sites on the other are occupied at equilibrium, for simple one-to-one binding. Broadly, the IC50 is the concentration that gives 50% inhibition.

This is an account of results in patent US10526316B2, “Quinoxaline and pyridopyrazine derivatives as PI3Kβ inhibitors” (Janssen Pharmaceutica NV, priority 2015, dated 2020).

Like-named read-outs stand apart in the source and are kept apart here.

One experiment addresses T1, PI3Kβ (Homo sapiens, UniProt P42338).
T1 construct: purchased DiscoveRx Corporation, San Diego (contract service, KINOMEscan)
Description: Enzyme binding assay (KINOMEscan, DiscoveRx). The following applies: PIK3Cβ_h, read-out: Kd PIK3Cβ_h. In outline:
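KINOMEscan binding platform; read-out is the inhibitor binding constant Kd (nM).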

Experiment [1] addresses T2, kinase enzymes (Homo sapiens, UniProt P42345).
T2 construct: purchased DiscoveRx Corporation, San Diego (contract service, KINOMEscan)
Briefly: Enzyme binding assay (KINOMEscan, DiscoveRx), further kinases of Table A. The following applies: MTOR_h. In outline:
(§1)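 KINOMEscan readout; values are kinase binding affinities.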

Experiment [2] concerns the target T3, kinase enzymes (Homo sapiens, UniProt P42336).
T3 construct: purchased DiscoveRx Corporation, San Diego (contract service, KINOMEscan)
The description is as above. The following applies: PIK3Cα_h. In outline:
as §1

Experiment [3] addresses T4, kinase enzymes (Homo sapiens, UniProt P48736).
T4 construct: purchased DiscoveRx Corporation, San Diego (contract service, KINOMEscan)
The experiment is described as above. The following applies: PIK3Cγ_h. In outline:
as §1

The subject of experiment [4] is Akt phosphorylated at Ser473 in PC-3 cells. Briefly: Cellular assay: phosphorylation of Akt at Ser473 in PC-3 cells (MSD ELISA). In kind it is cell-based. The conditions noted are these: PC-3 cells, 60 min compound incubation, MSD ELISA, read-out: IC50 pAkt_S473. Summed up: (§2)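 After lysis of treated cells (60 min, 37° C, 0.3% DMSO), phospho-Akt levels were measured by MSD electrochemiluminescence ELISA. Potency was derived from concentration-response curves fitted over five concentrations.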
On the technique in general: An ELISA detects its analyte on a solid surface through an enzyme-linked reagent.

The target in another experiment is T5, PI3Kδ (Homo sapiens, UniProt O00329).
T5 construct: purchased DiscoveRx Corporation, San Diego (contract service, KINOMEscan)
T5 sequence (O00329 1-1044): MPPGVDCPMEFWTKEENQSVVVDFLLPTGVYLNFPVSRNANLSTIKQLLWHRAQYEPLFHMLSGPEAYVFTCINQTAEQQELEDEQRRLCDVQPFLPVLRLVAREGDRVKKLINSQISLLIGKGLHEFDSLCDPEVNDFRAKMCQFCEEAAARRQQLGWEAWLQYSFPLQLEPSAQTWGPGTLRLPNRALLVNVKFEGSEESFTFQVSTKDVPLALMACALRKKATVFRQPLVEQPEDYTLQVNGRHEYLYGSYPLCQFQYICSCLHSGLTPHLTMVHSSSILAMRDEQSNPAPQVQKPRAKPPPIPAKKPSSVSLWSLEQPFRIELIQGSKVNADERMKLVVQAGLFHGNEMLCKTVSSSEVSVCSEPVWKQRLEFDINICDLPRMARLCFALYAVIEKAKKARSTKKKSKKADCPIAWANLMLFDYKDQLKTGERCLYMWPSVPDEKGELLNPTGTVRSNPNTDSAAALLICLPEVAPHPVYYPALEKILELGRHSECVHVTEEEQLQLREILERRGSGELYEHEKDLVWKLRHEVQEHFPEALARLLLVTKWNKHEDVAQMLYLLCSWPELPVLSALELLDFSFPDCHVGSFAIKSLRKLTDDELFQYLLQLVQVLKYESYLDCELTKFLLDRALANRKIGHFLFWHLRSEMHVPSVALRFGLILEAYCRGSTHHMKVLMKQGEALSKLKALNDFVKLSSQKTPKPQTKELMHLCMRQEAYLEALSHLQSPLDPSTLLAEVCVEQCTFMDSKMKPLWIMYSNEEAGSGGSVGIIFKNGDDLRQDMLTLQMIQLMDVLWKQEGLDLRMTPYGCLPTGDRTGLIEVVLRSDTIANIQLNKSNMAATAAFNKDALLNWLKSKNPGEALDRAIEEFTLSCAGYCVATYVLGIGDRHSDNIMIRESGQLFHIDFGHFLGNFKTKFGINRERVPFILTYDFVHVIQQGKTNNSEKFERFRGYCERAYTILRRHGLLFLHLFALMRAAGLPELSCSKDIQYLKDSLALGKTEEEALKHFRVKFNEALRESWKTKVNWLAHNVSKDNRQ
Description: Enzyme binding assay (KINOMEscan, DiscoveRx). The following applies: PIK3Cδ_h. Summed up: as §1

For experiment [5], the system named is Akt phosphorylated at Thr308 in PC-3 cells. Description: Cellular assay: phosphorylation of Akt at Thr308 in PC-3 cells (MSD ELISA). The following applies: PC-3 cells, 60 min compound incubation, MSD ELISA, read-out: IC50 pAkt_Thr308. Format: cell-based. Summed up: as §2

T1 sequence (P42338 whole entry): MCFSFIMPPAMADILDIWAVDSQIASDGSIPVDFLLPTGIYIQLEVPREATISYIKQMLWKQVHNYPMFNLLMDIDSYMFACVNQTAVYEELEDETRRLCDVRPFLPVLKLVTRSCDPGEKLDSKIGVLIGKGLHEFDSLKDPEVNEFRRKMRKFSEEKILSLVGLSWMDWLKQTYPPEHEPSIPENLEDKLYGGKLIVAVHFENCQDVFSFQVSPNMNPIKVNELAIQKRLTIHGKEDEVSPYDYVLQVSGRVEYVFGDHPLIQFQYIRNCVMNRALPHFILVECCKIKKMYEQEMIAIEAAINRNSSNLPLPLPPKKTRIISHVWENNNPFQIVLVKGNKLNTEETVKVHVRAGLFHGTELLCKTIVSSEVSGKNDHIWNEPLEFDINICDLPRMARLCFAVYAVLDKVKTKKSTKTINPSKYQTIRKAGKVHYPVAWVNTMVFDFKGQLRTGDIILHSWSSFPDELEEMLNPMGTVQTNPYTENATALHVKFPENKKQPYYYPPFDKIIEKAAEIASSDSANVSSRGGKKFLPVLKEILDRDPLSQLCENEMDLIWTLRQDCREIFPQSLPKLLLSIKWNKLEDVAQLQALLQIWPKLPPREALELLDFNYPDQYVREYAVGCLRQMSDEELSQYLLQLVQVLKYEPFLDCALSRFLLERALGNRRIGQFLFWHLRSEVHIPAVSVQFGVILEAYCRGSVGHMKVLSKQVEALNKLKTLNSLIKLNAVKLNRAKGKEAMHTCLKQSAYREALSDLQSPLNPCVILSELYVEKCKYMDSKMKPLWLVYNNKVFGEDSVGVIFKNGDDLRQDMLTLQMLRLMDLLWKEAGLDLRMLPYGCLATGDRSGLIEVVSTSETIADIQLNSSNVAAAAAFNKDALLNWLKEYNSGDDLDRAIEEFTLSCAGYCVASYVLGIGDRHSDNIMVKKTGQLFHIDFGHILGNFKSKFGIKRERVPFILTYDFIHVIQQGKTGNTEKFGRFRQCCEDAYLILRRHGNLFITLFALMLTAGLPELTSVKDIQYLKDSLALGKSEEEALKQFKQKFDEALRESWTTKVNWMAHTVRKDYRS
T4 sequence (P48736 whole entry): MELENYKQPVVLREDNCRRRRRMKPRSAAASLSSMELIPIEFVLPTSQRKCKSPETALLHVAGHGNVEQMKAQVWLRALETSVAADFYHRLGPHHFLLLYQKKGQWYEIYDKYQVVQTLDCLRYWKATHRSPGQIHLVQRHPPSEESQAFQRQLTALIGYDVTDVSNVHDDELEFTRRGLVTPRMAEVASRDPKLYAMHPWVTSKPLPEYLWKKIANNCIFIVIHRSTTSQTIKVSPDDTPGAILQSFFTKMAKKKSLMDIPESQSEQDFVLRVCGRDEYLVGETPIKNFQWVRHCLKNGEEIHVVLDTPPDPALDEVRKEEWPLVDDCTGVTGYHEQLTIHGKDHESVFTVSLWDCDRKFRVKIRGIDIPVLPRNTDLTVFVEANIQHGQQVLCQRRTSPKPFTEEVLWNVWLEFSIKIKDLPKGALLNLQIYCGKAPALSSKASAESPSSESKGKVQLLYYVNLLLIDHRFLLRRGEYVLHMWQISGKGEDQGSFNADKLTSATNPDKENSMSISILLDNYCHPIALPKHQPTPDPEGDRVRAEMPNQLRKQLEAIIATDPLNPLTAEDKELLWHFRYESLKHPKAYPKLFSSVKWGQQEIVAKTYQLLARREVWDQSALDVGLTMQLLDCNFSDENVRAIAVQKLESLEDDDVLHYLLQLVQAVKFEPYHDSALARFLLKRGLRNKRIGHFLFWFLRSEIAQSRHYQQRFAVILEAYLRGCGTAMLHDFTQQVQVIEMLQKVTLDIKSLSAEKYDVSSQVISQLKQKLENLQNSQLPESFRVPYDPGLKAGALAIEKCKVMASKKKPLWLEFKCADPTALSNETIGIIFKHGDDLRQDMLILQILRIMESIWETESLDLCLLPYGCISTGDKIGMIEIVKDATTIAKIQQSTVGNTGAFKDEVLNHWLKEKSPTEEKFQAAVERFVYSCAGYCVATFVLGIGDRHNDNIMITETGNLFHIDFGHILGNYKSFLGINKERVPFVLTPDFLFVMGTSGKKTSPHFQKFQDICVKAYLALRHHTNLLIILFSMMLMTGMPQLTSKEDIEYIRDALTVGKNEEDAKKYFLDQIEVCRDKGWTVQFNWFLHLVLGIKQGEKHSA
T3 sequence (P42336 whole entry): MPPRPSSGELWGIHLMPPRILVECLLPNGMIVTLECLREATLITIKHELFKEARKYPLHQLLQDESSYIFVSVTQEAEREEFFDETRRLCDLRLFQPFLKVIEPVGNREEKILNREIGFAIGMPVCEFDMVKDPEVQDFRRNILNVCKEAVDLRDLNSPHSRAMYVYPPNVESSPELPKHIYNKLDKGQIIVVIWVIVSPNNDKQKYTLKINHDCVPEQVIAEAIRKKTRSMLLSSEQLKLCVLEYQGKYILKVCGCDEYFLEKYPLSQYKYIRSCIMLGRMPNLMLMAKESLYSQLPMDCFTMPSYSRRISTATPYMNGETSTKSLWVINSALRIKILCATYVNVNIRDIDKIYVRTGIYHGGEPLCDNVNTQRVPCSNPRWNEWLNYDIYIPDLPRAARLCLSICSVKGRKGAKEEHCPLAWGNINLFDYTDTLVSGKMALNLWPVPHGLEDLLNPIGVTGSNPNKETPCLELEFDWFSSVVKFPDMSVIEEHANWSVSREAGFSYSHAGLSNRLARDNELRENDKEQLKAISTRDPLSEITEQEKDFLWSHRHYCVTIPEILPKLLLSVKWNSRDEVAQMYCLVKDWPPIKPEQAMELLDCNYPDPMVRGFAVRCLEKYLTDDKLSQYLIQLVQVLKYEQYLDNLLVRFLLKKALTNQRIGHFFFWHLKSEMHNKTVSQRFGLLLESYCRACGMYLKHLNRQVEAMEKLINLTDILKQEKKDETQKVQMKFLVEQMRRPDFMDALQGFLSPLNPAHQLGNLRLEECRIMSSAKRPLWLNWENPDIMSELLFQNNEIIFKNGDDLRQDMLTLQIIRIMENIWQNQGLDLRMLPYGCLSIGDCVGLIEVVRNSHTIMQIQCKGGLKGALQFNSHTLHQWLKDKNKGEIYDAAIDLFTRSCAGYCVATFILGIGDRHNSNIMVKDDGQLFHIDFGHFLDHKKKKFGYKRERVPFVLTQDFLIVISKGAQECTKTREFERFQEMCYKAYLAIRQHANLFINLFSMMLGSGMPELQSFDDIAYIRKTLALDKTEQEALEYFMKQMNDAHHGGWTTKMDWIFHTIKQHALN

As for `CC(Nc1cc(F)c(F)c(F)c1)c1cc(C(=O)N(C)C2CCNC2)cc2ncc(N3CCOCC3)nc12` (stereo not shown) [Compound 296], the Kd at PI3Kβ was 0.001 µM; at kinase enzymes [1], more than 30.2 µM; on kinase enzymes [2], 2.95 µM; on kinase enzymes [3], 6.46 µM; on PI3Kδ, 0.166 µM. Further, the IC50 is 0.042 µM in experiment [4] (Homo sapiens, PC-3, 1 h) and 0.014 µM in experiment [5] (Homo sapiens, PC-3, 1 h).

`CC(Nc1cc(F)c(F)c(F)c1)c1cc(C(=O)N2CCCN(C(C)C)CC2)cc2ncc(N3CCOCC3)nc12` (single isomer, unassigned) [Compound 388b]: the Kd is 0.003 µM at PI3Kβ; more than 30.2 µM on kinase enzymes [1]; 2.19 µM at kinase enzymes [2]; 2.4 µM at kinase enzymes [3]; 0.2 µM at PI3Kδ. For the same molecule, the IC50 in experiment [4] (Homo sapiens, PC-3, 1 h) is 0.038 µM; in experiment [5] (Homo sapiens, PC-3, 1 h), 0.019 µM.

Consider `CC(Nc1cc(F)cc(F)c1)c1cc(-c2cc[nH]n2)cc2ncc(N3CCOCC3)nc12` (stereo not shown) [Compound 304], for which the Kd on PI3Kβ was 0.062 µM; on kinase enzymes [1] it was more than 30.2 µM; at kinase enzymes [2], 7.24 µM; on kinase enzymes [3], 20 µM; at PI3Kδ, 6.76 µM. For the same molecule, the concentration for half-maximal inhibition (IC50) is more than 0.513 µM in experiment [4] (Homo sapiens, PC-3, 1 h) and 0.295 µM in experiment [5] (Homo sapiens, PC-3, 1 h).

In the case of `CC(Nc1cc(F)cc(F)c1)c1cc(C(=O)N2CCNC(C(F)(F)F)C2)cc2ncc(N3CCOCC3)nc12` (single isomer, unassigned) [Compound 237d], the equilibrium dissociation constant (Kd) at PI3Kβ was 0.24 µM; at kinase enzymes [1], more than 30.2 µM; on kinase enzymes [2] it was 12.6 µM; at kinase enzymes [3], more than 30.2 µM; on PI3Kδ it was 19.5 µM. Also, the IC50 in experiment [4] and in experiment [5] was more than 0.513 µM each time.

For the molecule `CNCCN(C)C(=O)c1cc(C(C)Oc2cc(F)c(F)c(F)c2)c2nc(N3CCOCC3)cnc2c1` (stereo not shown) [Compound 379a], the Kd at PI3Kβ is 0.002 µM; on kinase enzymes [1] it was more than 30.2 µM; on kinase enzymes [2], 9.77 µM; on kinase enzymes [3], more than 30.2 µM; on PI3Kδ, 0.813 µM. In addition, the half-inhibitory concentration (IC50) in experiment [4] (Homo sapiens, PC-3, 1 h) is approximately 0.029 µM; in experiment [5] (Homo sapiens, PC-3, 1 h), 0.022 µM.

With `CC(Nc1cc(F)cc(F)c1)c1cc(CN2CCS(=O)(=O)CC2)cc2ncc(N3CCOCC3)nc12` (single isomer, unassigned) [Compound 157], the Kd was 0.102 µM at PI3Kβ; more than 30.2 µM at kinase enzymes [1]; 13.2 µM on kinase enzymes [2]; more than 30.2 µM on kinase enzymes [3]; 20 µM on PI3Kδ. Moreover, the figures for the IC50 in experiment [4] and in experiment [5] were more than 0.513 µM and 0.417 µM, respectively.

Take `CC(Nc1cc(F)cc(F)c1)c1cc(CN2C[C@@H](C)O[C@@H](C)C2)cc2ncc(N3CCOCC3)nc12` (single isomer, unassigned) [Compound 208]: the equilibrium dissociation constant (Kd) on PI3Kβ was 0.008 µM; on kinase enzymes [1] it was more than 30.2 µM; on kinase enzymes [2] it was 3.47 µM; on kinase enzymes [3] it was more than 30.2 µM; on PI3Kδ, 1.41 µM. Besides, the IC50 is 0.186 µM in experiment [4] and 0.083 µM in experiment [5].

Regarding `Cc1c(F)cccc1CN(C)c1cc(C(=O)N(C)C)cc2ncc(N3CCOCC3)nc12` [Compound 354], the dissociation constant Kd at PI3Kβ is 0.063 µM; on kinase enzymes [1] it was more than 30.2 µM; at kinase enzymes [2] it was 8.13 µM; at kinase enzymes [3] it was 28.2 µM; at PI3Kδ, 2.4 µM. Besides, the concentration for half-maximal inhibition (IC50) in experiment [4] (Homo sapiens, PC-3, 1 h) is more than 0.513 µM; in experiment [5] (Homo sapiens, PC-3, 1 h), more than 0.513 µM.

`Cc1ccc(NC(C)c2cc(C(=O)NCCO)cc3ncc(N4CCOCC4)nc23)cc1F` (single isomer, unassigned) [Compound 295a]: the equilibrium dissociation constant (Kd) at PI3Kβ was 0.288 µM; on kinase enzymes [1], 14.5 µM; at kinase enzymes [2], 6.46 µM; at kinase enzymes [3], more than 30.2 µM; at PI3Kδ it was 6.76 µM. The IC50 in experiment [4] and in experiment [5] was more than 0.513 µM in each case.

Consider `CC(Nc1cc(F)cc(F)c1)c1cc(C(=O)NS(=O)(=O)C2CC2)cc2ncc(N3CCOCC3)nc12` (single isomer, unassigned) [Compound 219], for which the Kd at PI3Kβ was 0.001 µM; at kinase enzymes [1], 3.31 µM; at kinase enzymes [2] it was 0.093 µM; at kinase enzymes [3] it was 0.955 µM; on PI3Kδ, 0.275 µM. For the same molecule, the IC50 in experiment [4] (Homo sapiens, PC-3, 1 h) was more than 0.513 µM; in experiment [5] (Homo sapiens, PC-3, 1 h), more than 0.513 µM.
